In paper PMC10836395, “Investigation of how gate residues in the main channel affect the catalytic activity of Scytalidium thermophilum catalase” (Acta Crystallographica. Section D, Structural Biology, 2024):
Read-outs that look alike come from different tables or passages of the source. Marks after values point to notes of the source that are not given here.

Tests used:
[1] = molecular target: T1, CATPO (Scytalidium thermophilum (Humicola insolens), UniProt M4GGR5); assay: Substrate-specificity analysis of the phenol oxidase activity; type: biochemical
[2] = molecular target: T2, CATPO E484A variant (Scytalidium thermophilum (Humicola insolens), UniProt M4GGR5, E503A); assay: as above; type: biochemical; conditions: for K m: pH 7.0 (ABTS pH 5.0), 60°C
[3] = molecular target: T3, CATPO E484D variant (Scytalidium thermophilum (Humicola insolens), UniProt M4GGR5, E503D); type: biochemical; conditions: for K m: pH 7.0 (ABTS pH 5.0), 60°C
[4] = molecular target: T4, CATPO E484I variant (Scytalidium thermophilum (Humicola insolens), UniProt M4GGR5, E503I); type: biochemical; conditions: for K m: pH 7.0 (ABTS pH 5.0), 60°C
[5] = molecular target: T5, CATPO T188A variant (Scytalidium thermophilum (Humicola insolens), UniProt M4GGR5, T207A); type: biochemical; conditions: for K m: pH 7.0 (ABTS pH 5.0), 60°C
[6] = molecular target: T6, CATPO T188D variant (Scytalidium thermophilum (Humicola insolens), UniProt M4GGR5, T207D); type: biochemical; conditions: for K m: pH 7.0 (ABTS pH 5.0), 60°C
[7] = molecular target: T7, CATPO T188F variant (Scytalidium thermophilum (Humicola insolens), UniProt M4GGR5, T207F); type: biochemical; conditions: for K m: pH 7.0 (ABTS pH 5.0), 60°C
[8] = molecular target: T8, CATPO T188I variant (Scytalidium thermophilum (Humicola insolens), UniProt M4GGR5, T207I); type: biochemical; conditions: for K m: pH 7.0 (ABTS pH 5.0), 60°C
[9] = molecular target: T1, CATPO; assay: Inhibition of catechol oxidation; type: biochemical
[10] = molecular target: T2, CATPO E484A variant; assay: biochemical
[11] = molecular target: T3, CATPO E484D variant; assay: biochemical
[12] = molecular target: T4, CATPO E484I variant; assay: biochemical
[13] = molecular target: T5, CATPO T188A variant; assay: biochemical
[14] = molecular target: T6, CATPO T188D variant; assay: biochemical
[15] = molecular target: T7, CATPO T188F variant; assay: biochemical
[16] = molecular target: T8, CATPO T188I variant; assay: biochemical
[17] = substrate: CCn1c(=NN=c2sc3cc(S(=O)(=O)O)ccc3n2CC)sc2cc(S(=O)(=O)O)ccc21; assay: purified protein, by the assay type; conditions: 60.0 °C
[18] = substrate: CC(C)(C)c1ccc(O)c(O)c1; assay: Spectrophotometric phenol oxidase assay without H2O2 at pH 7.0 and 60 °C, initial rates fitted to the Michaelis-Menten equation.; type: biochemical
Procedure: (§1) All inhibition assays were performed in triplicate.

[19] = substrate: Cc1ccc(O)c(O)c1; assay: as above; type: biochemical
Procedure: as §1

[20] = substrate: Oc1ccc(O)cc1; assay: as above; type: biochemical
Procedure: as §1

[21] = substrate: Oc1ccccc1O; assay: Spectrophotometric catechol oxidation assay at 420 nm, pH 7.0 and 60 °C; values not normalized to heme content.; type: biochemical
Procedure: as §1
Tabl e S1 Comparison of gate residues at the entrance of the main channel among large subunit […]
PDB ID e Organism Gate residues
Tabl e S2 K i neti c const ant s
**Catalase activity **Phenol oxidase activity
*KM-app kcat kcat/*KM-app KM kcat kcat/KM
(mM) (s-1) (s-1 M-1) (mM) (s-1) (s-1 M-1) Rz Heme
RZ = A407/A280. T he values were normalized to heme content in each CAT PO variant. T he values in parentheses are for unnor malized val ues a nd shaded in gre y for ease of vie wi ng. *KM-app is the H2O2 concentratio n at Vmax/2 […]
Michaelis–Menten kinetics (Switala & Loewen, 2002).
**One unit of catalase is defined as the amo unt that catalyses the degradation o f 1 µmol H2O2 in 1 min. One unit of phenol oxidase corresponds to the enzyme catalysing the formation of 1 nmol of product per minute.

[22] = substrate: Oc1ccccc1O; assay: Phenol oxidase activity (H2O2-independent) measured spectrophotometrically by product formation at pH 7.0, 60 C, Michaelis-Menten fit.; type: biochemical
Procedure: as §1

T1 sequence (M4GGR5 entry or part of it): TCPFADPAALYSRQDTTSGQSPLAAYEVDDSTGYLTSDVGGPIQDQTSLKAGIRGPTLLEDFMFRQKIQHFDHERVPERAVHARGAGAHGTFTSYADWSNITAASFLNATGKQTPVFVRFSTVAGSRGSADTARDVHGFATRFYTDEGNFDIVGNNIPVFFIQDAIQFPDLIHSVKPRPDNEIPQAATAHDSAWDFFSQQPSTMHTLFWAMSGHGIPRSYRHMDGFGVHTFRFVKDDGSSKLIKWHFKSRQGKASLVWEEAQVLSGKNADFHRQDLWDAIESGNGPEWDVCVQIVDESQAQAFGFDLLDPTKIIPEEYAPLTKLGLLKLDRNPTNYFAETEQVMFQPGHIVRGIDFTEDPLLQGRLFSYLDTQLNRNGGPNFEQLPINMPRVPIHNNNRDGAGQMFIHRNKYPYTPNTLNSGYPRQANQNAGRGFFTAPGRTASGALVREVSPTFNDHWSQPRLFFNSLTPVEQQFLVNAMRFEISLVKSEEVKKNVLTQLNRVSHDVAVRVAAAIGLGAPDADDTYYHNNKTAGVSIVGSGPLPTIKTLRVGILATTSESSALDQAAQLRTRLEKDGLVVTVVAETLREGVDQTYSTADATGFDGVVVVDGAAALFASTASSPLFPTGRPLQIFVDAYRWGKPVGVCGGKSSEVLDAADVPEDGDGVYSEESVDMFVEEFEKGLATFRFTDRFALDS
T4 sequence (M4GGR5 entry or part of it E503I): as the sequence (M4GGR5 entry or part of it) above
T3 sequence (M4GGR5 entry or part of it E503D): as the sequence (M4GGR5 entry or part of it) above
T8 sequence (M4GGR5 entry or part of it T207I): as the sequence (M4GGR5 entry or part of it) above
T7 sequence (M4GGR5 entry or part of it T207F): as the sequence (M4GGR5 entry or part of it) above
T2 sequence (M4GGR5 entry or part of it E503A): as the sequence (M4GGR5 entry or part of it) above
T5 sequence (M4GGR5 entry or part of it T207A): as the sequence (M4GGR5 entry or part of it) above
T6 sequence (M4GGR5 entry or part of it T207D): as the sequence (M4GGR5 entry or part of it) above

For `CC(C)(C)c1ccc(O)c(O)c1` [1,4-tert-Butylcatechol, 4-tert-butylcatechol], the V max [1] was 20000 ± 362 mM/min, the “k cat/K m” value [1] was 1240 ± 90 s^−1 M^−1 (×10^2) and the V max [2] was 65000 ± 745 mM/min. The “k cat/K m” value [2] was 10000 ± 65 s^−1 M^−1 (×10^2), the K m [2] was 33 ± 0.5 mM and the V max [3] was 18800 ± 144 mM/min. The “k cat/K m” value [3] was 1300 ± 100 s^−1 M^−1 (×10^2), the K m [3] was 38 ± 0.5 mM and the V max [4] was 28600 ± 430 mM/min. The “k cat/K m” value [4] was 4450 ± 66 s^−1 M^−1 (×10^2), the K m [4] was 37 ± 0.4 mM and the V max [5] was 19400 ± 568 mM/min. For the same molecule, the “k cat/K m” value [5] was 1460 ± 150 s^−1 M^−1 (×10^2), the K m [5] was 37 ± 1.0 mM and the V max [6] was 18000 ± 500 mM/min. The “k cat/K m” value [6] was 6590 ± 150 s^−1 M^−1 (×10^2), the K m [6] was 38 ± 0.5 mM and the V max [7] was 41600 ± 340 mM/min. For the same molecule, the “k cat/K m” value [7] was 5230 ± 145 s^−1 M^−1 (×10^2), the K m [7] was 34 ± 0.4 mM and the V max [8] was 30500 ± 650 mM/min. The “k cat/K m” value [8] was 4900 ± 410 s^−1 M^−1 (×10^2), the K m [8] was 35 ± 0.5 mM and the Ki ([9]; catechol oxidation by CATPO, catechol 1 to 100 mM, read-out: K i) was 2.1 ± 0.8 mM. For the same molecule, the Ki [10] was 67 ± 7 mM, the Ki [11] was 2.2 ± 0.5 mM and the Ki [12] was 50 ± 1.5 mM. For the same molecule, the Ki [13] was 2.1 ± 0.1 mM, the Ki [14] was 49 ± 3.2 mM and the Ki [15] was 59 ± 4.5 mM. For the same molecule, the Ki [16] was 53 ± 4.5 mM.

`Oc1ccc(O)cc1` [Hydroquinone, p-hydroquinone] was tested, and the V max [1] was 10000 ± 300 mM/min, the “k cat/K m” value [1] was 750 ± 50 s^−1 M^−1 (×10^2) and the K m ([1]; pH 7.0 (ABTS pH 5.0), 60°C) was 45 ± 1.5 mM. The V max [2] was 17800 ± 100 mM/min, the “k cat/K m” value [2] was 600 ± 40 s^−1 M^−1 (×10^2) and the K m [2] was 43 ± 1.2 mM. The V max [3] was 9900 ± 125 mM/min, the “k cat/K m” value [3] was 300 ± 50 s^−1 M^−1 (×10^2) and the K m [3] was 46 ± 0.8 mM. For the same molecule, the V max [4] was 10000 ± 100 mM/min, the “k cat/K m” value [4] was 460 ± 20 s^−1 M^−1 (×10^2) and the K m [4] was 45 ± 1.3 mM. The V max [5] was 9850 ± 85 mM/min, the “k cat/K m” value [5] was 300 ± 30 s^−1 M^−1 (×10^2) and the K m [5] was 46 ± 0.4 mM. For the same molecule, the V max [6] was 9600 ± 65 mM/min, the “k cat/K m” value [6] was 480 ± 64 s^−1 M^−1 (×10^2) and the K m [6] was 46 ± 1.0 mM. The V max [7] was 13000 ± 140 mM/min, the “k cat/K m” value [7] was 530 ± 65 s^−1 M^−1 (×10^2) and the K m [7] was 42 ± 1.0 mM. For the same molecule, the V max [8] was 11000 ± 110 mM/min, the “k cat/K m” value [8] was 490 ± 78 s^−1 M^−1 (×10^2) and the K m [8] was 44 ± 0.4 mM. The Ki [9] was 8.5 ± 0.5 mM, the Ki [10] was 81 ± 4.7 mM and the Ki [11] was 8.5 ± 1.4 mM. The Ki [12] was 70 ± 3.5 mM, the Ki [13] was 8.6 ± 0.6 mM and the Ki [14] was 66 ± 5.5 mM. The Ki [15] was 76 ± 5.1 mM and the Ki [16] was 70 ± 4 mM.

B1: E484I (Mycothermus thermophilus; E503I) (protein)
chain: TCPFADPAALYSRQDTTSGQSPLAAYEVDDSTGYLTSDVGGPIQDQTSLKAGIRGPTLLEDFMFRQKIQHFDHERVPERAVHARGAGAHGTFTSYADWSNITAASFLNATGKQTPVFVRFSTVAGSRGSADTARDVHGFATRFYTDEGNFDIVGNNIPVFFIQDAIQFPDLIHSVKPRPDNEIPQAATAHDSAWDFFSQQPSTMHTLFWAMSGHGIPRSYRHMDGFGVHTFRFVKDDGSSKLIKWHFKSRQGKASLVWEEAQVLSGKNADFHRQDLWDAIESGNGPEWDVCVQIVDESQAQAFGFDLLDPTKIIPEEYAPLTKLGLLKLDRNPTNYFAETEQVMFQPGHIVRGIDFTEDPLLQGRLFSYLDTQLNRNGGPNFEQLPINMPRVPIHNNNRDGAGQMFIHRNKYPYTPNTLNSGYPRQANQNAGRGFFTAPGRTASGALVREVSPTFNDHWSQPRLFFNSLTPVEQQFLVNAMRFIISLVKSEEVKKNVLTQLNRVSHDVAVRVAAAIGLGAPDADDTYYHNNKTAGVSIVGSGPLPTIKTLRVGILATTSESSALDQAAQLRTRLEKDGLVVTVVAETLREGVDQTYSTADATGFDGVVVVDGAAALFASTASSPLFPTGRPLQIFVDAYRWGKPVGVCGGKSSEVLDAADVPEDGDGVYSEESVDMFVEEFEKGLATFRFTDRFALDS
notes: recombinant, pET-28-TEV-CATPO; contains heme b; Rz 0.5
Molecule B1 has a Km [17] of 50 ± 0.5 mM, a Km [18] of 37 ± 0.4 mM and a Km [19] of 35 ± 0.7 mM. The Km [20] was 45 ± 1.3 mM, the Km [21] was 40 mM and the Km [22] was 30 ± 1.0 mM. It also gave a kcat [22] of 26500 ± 1320 s⁻¹ and a kcat/Km [22] of 880000 ± 7200 M⁻¹ s⁻¹.

B2: T188A (Mycothermus thermophilus; T207A) (protein)
chain: TCPFADPAALYSRQDTTSGQSPLAAYEVDDSTGYLTSDVGGPIQDQTSLKAGIRGPTLLEDFMFRQKIQHFDHERVPERAVHARGAGAHGTFTSYADWSNITAASFLNATGKQTPVFVRFSTVAGSRGSADTARDVHGFATRFYTDEGNFDIVGNNIPVFFIQDAIQFPDLIHSVKPRPDNEIPQAAAAHDSAWDFFSQQPSTMHTLFWAMSGHGIPRSYRHMDGFGVHTFRFVKDDGSSKLIKWHFKSRQGKASLVWEEAQVLSGKNADFHRQDLWDAIESGNGPEWDVCVQIVDESQAQAFGFDLLDPTKIIPEEYAPLTKLGLLKLDRNPTNYFAETEQVMFQPGHIVRGIDFTEDPLLQGRLFSYLDTQLNRNGGPNFEQLPINMPRVPIHNNNRDGAGQMFIHRNKYPYTPNTLNSGYPRQANQNAGRGFFTAPGRTASGALVREVSPTFNDHWSQPRLFFNSLTPVEQQFLVNAMRFEISLVKSEEVKKNVLTQLNRVSHDVAVRVAAAIGLGAPDADDTYYHNNKTAGVSIVGSGPLPTIKTLRVGILATTSESSALDQAAQLRTRLEKDGLVVTVVAETLREGVDQTYSTADATGFDGVVVVDGAAALFASTASSPLFPTGRPLQIFVDAYRWGKPVGVCGGKSSEVLDAADVPEDGDGVYSEESVDMFVEEFEKGLATFRFTDRFALDS
notes: recombinant, pET-28-TEV-CATPO; contains heme d; Rz 0.7
With B2 the Km [17] was 52 ± 0.8 mM, the Km [18] was 37 ± 1.0 mM and the Km [19] was 35 ± 1.0 mM. The Km [20] was 46 ± 0.4 mM, the Km [21] was 33 ± 0.5 mM and the kcat [21] was 6700 ± 335 s⁻¹. It also gave a kcat/Km [21] of 200000 ± 12000 M⁻¹ s⁻¹.

B3: T188D (Mycothermus thermophilus; T207D) (protein)
chain: TCPFADPAALYSRQDTTSGQSPLAAYEVDDSTGYLTSDVGGPIQDQTSLKAGIRGPTLLEDFMFRQKIQHFDHERVPERAVHARGAGAHGTFTSYADWSNITAASFLNATGKQTPVFVRFSTVAGSRGSADTARDVHGFATRFYTDEGNFDIVGNNIPVFFIQDAIQFPDLIHSVKPRPDNEIPQAADAHDSAWDFFSQQPSTMHTLFWAMSGHGIPRSYRHMDGFGVHTFRFVKDDGSSKLIKWHFKSRQGKASLVWEEAQVLSGKNADFHRQDLWDAIESGNGPEWDVCVQIVDESQAQAFGFDLLDPTKIIPEEYAPLTKLGLLKLDRNPTNYFAETEQVMFQPGHIVRGIDFTEDPLLQGRLFSYLDTQLNRNGGPNFEQLPINMPRVPIHNNNRDGAGQMFIHRNKYPYTPNTLNSGYPRQANQNAGRGFFTAPGRTASGALVREVSPTFNDHWSQPRLFFNSLTPVEQQFLVNAMRFEISLVKSEEVKKNVLTQLNRVSHDVAVRVAAAIGLGAPDADDTYYHNNKTAGVSIVGSGPLPTIKTLRVGILATTSESSALDQAAQLRTRLEKDGLVVTVVAETLREGVDQTYSTADATGFDGVVVVDGAAALFASTASSPLFPTGRPLQIFVDAYRWGKPVGVCGGKSSEVLDAADVPEDGDGVYSEESVDMFVEEFEKGLATFRFTDRFALDS
notes: as for B1
B3 showed a Km [17] of 55 ± 1.0 mM, a Km [18] of 38 ± 0.5 mM and a Km [19] of 30 ± 0.1 mM. The Km [20] was 46 ± 1.0 mM, the Km [21] was 33 mM and the Km [22] was 25 ± 1.5 mM. The kcat [22] was 22300 ± 669 s⁻¹ and the kcat/Km [22] was 890000 ± 7000 M⁻¹ s⁻¹.
